Key:
STAT3 (S727) = details: 786-O cells; 48 h
[1] = biological target: ABL1(Y253F)-phosphorylated (Homo sapiens, UniProt P00519, Y253F); experiment: biochemical; details: read-out: %Ctrl @ 2000nM
AMPK-alpha1 = AMPK-alpha1 (Homo sapiens, UniProt Q13131); experiment: biochemical; details: read-out: %Ctrl @ 2000nM
AURKB = AURKB (Homo sapiens, UniProt Q96GD4); experiment: biochemical; details: read-out: %Ctrl @ 2000nM
CAMK4 = CAMK4 (Homo sapiens, UniProt Q16566); experiment: biochemical; details: read-out: %Ctrl @ 2000nM
Sequence of CAMK4 (Q16566 whole entry): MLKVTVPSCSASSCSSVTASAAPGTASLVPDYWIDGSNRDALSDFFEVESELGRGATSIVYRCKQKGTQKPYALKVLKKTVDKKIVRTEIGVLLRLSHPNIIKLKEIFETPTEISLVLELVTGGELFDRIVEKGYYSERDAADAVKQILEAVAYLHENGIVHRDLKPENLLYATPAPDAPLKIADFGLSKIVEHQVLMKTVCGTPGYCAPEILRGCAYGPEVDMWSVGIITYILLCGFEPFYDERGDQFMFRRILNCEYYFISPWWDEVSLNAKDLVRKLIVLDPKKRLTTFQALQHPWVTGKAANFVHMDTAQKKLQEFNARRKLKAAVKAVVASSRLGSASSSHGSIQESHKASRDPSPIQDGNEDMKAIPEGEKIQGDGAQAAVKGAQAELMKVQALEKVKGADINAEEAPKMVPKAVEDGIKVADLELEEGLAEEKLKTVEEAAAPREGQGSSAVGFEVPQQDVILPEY

CDK2 = CDK2 (Homo sapiens, UniProt P24941); experiment: biochemical; details: read-out: %Ctrl @ 2000nM
CHEK2 = CHEK2 (Homo sapiens, UniProt O96017); experiment: biochemical; details: read-out: %Ctrl @ 2000nM
CLK4 = CLK4 (Homo sapiens, UniProt Q9HAZ1); experiment: biochemical; details: read-out: %Ctrl @ 2000nM
EPHA3 = EPHA3 (Homo sapiens, UniProt P29320); experiment: biochemical; details: read-out: %Ctrl @ 2000nM
EPHB1 = EPHB1 (Homo sapiens, UniProt P54762); experiment: biochemical; details: read-out: %Ctrl @ 2000nM
EPHB2 = EPHB2 (Homo sapiens, UniProt P29323); experiment: biochemical; details: read-out: %Ctrl @ 2000nM
Sequence of EPHB2 (P29323 19-1055): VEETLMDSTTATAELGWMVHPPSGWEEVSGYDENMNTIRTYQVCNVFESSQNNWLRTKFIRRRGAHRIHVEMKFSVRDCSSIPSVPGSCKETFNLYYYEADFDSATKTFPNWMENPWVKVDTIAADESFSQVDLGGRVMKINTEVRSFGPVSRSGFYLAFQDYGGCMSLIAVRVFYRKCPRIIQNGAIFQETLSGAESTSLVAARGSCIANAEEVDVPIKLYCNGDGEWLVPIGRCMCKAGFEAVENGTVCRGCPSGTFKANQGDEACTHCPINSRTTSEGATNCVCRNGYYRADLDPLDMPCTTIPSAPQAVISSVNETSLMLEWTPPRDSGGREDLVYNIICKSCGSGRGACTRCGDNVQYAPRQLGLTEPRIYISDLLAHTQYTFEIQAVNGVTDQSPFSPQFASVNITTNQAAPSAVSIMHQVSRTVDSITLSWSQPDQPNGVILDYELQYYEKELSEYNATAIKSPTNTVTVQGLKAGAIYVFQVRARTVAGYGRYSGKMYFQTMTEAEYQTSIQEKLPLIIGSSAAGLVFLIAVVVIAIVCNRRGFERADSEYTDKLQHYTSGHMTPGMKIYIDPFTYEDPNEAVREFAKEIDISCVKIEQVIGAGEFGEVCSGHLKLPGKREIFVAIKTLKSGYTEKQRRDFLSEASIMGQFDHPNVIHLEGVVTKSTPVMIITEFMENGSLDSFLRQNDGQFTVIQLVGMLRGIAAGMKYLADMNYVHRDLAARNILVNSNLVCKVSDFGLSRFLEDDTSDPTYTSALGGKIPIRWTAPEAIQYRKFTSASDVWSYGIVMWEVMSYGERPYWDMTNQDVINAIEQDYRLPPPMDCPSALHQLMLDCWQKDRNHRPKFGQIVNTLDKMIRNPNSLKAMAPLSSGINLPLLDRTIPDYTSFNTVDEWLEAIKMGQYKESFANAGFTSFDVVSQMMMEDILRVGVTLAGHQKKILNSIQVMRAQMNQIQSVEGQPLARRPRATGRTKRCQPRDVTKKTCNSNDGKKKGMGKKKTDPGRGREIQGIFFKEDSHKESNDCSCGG

ERK3 = ERK3 (Homo sapiens, UniProt Q16659); experiment: biochemical; details: read-out: %Ctrl @ 2000nM
FES = FES (Homo sapiens, UniProt P07332); experiment: biochemical; details: read-out: %Ctrl @ 2000nM
FGR = FGR (Homo sapiens, UniProt P09769); experiment: biochemical; details: read-out: %Ctrl @ 2000nM
FLT3(D835V) = FLT3(D835V) (Homo sapiens, UniProt P36888, D835V); experiment: biochemical; details: read-out: %Ctrl @ 2000nM
GRK4 = GRK4 (Homo sapiens, UniProt P32298); experiment: biochemical; details: read-out: %Ctrl @ 2000nM
GRK7 = GRK7 (Homo sapiens, UniProt Q8WTQ7); experiment: biochemical; details: read-out: %Ctrl @ 2000nM
IGF1R = IGF1R (Homo sapiens, UniProt P08069); experiment: biochemical; details: read-out: %Ctrl @ 2000nM
LIMK1 = LIMK1 (Homo sapiens, UniProt P53667); experiment: biochemical; details: read-out: %Ctrl @ 2000nM
LRRK2 = LRRK2 (Homo sapiens, UniProt Q5S007); experiment: biochemical; details: read-out: %Ctrl @ 2000nM
Sequence of LRRK2 (Q5S007 whole entry): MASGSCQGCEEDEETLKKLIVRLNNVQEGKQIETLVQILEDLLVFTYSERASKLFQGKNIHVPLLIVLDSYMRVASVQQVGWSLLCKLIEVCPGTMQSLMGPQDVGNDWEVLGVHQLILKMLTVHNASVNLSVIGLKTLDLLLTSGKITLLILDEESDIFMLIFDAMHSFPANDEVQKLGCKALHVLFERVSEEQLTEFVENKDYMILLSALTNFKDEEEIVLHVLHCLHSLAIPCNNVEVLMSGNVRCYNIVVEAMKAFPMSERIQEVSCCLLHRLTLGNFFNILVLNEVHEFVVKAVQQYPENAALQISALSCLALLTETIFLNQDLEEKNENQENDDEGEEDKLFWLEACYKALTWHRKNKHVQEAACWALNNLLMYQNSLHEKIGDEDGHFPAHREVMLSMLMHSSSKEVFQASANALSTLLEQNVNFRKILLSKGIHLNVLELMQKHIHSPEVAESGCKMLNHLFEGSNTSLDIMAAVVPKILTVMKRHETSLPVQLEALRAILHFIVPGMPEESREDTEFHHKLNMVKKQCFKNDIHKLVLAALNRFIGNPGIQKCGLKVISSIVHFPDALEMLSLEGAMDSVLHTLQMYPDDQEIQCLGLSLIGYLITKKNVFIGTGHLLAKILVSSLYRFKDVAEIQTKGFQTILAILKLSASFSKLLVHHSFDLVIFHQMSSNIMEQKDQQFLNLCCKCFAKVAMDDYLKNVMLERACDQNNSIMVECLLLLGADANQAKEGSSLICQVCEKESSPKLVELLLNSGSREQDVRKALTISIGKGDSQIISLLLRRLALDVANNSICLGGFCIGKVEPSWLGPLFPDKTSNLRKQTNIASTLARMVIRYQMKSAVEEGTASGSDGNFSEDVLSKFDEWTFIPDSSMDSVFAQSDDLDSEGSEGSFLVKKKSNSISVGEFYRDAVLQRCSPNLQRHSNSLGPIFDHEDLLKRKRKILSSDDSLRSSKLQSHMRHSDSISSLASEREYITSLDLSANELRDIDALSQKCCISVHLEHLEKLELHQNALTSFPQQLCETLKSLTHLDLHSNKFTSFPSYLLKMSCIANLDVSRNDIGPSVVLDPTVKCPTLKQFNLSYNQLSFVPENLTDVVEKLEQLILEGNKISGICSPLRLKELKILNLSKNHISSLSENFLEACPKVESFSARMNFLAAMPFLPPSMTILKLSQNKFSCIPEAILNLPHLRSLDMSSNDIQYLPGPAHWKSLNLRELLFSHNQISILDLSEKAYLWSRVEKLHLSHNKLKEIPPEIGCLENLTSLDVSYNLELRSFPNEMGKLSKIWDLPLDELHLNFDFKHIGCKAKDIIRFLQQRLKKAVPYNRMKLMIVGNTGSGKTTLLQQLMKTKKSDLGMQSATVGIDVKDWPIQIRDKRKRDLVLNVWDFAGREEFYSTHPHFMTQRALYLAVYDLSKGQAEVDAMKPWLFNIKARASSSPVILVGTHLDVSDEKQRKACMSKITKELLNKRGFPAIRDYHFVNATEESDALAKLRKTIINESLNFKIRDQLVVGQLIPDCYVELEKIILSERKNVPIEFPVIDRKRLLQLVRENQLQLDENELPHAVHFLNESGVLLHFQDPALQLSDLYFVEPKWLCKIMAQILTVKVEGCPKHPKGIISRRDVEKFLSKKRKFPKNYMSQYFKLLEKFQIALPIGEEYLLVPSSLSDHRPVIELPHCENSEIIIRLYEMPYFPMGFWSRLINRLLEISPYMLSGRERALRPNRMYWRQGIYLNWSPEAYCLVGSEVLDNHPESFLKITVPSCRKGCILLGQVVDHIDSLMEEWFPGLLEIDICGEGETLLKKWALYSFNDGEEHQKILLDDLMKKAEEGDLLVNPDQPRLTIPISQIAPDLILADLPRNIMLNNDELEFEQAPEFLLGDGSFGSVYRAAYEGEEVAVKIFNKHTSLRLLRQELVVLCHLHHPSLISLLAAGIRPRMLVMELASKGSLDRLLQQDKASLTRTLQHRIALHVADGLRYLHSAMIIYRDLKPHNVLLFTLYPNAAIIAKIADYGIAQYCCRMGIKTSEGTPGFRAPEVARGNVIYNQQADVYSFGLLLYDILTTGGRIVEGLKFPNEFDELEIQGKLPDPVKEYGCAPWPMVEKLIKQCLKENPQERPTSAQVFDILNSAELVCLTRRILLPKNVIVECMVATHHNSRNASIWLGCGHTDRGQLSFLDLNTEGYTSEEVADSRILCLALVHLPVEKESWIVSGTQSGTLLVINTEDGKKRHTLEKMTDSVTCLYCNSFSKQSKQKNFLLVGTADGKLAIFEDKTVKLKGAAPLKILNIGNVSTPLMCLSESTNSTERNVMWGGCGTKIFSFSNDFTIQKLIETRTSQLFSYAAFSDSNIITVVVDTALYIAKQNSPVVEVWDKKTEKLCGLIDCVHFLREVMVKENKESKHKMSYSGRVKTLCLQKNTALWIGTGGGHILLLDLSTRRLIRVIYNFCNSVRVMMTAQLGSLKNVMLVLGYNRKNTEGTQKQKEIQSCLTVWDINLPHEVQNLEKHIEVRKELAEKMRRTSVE

LYN = LYN (Homo sapiens, UniProt P07948); experiment: biochemical; details: read-out: %Ctrl @ 2000nM
MAP3K3 = MAP3K3 (Homo sapiens, UniProt Q99759); experiment: biochemical; details: read-out: %Ctrl @ 2000nM
MARK1 = MARK1 (Homo sapiens, UniProt Q9P0L2); experiment: biochemical; details: read-out: %Ctrl @ 2000nM
MKK7 = MKK7 (Homo sapiens, UniProt O14733); experiment: biochemical; details: read-out: %Ctrl @ 2000nM
MLK1 = MLK1 (Homo sapiens, UniProt P80192); experiment: biochemical; details: read-out: %Ctrl @ 2000nM
MRCKA = MRCKA (Homo sapiens, UniProt Q5VT25); experiment: biochemical; details: read-out: %Ctrl @ 2000nM
MST1 = MST1 (Homo sapiens, UniProt Q13043); experiment: biochemical; details: read-out: %Ctrl @ 2000nM
MYLK = MYLK (Homo sapiens, UniProt Q15746); experiment: biochemical; details: read-out: %Ctrl @ 2000nM
OSR1 = OSR1 (Homo sapiens, UniProt O95747); experiment: biochemical; details: read-out: %Ctrl @ 2000nM
PAK1 = PAK1 (Homo sapiens, UniProt Q13153); experiment: biochemical; details: read-out: %Ctrl @ 2000nM
PIK3CA(E542K) = PIK3CA(E542K) (Homo sapiens, UniProt P42336, E542K); experiment: biochemical; details: read-out: %Ctrl @ 2000nM
PIK3CA(E545A) = PIK3CA(E545A) (Homo sapiens, UniProt P42336, E545A); experiment: biochemical; details: read-out: %Ctrl @ 2000nM
PIP5K1C = PIP5K1C (Homo sapiens, UniProt O60331); experiment: biochemical; details: read-out: %Ctrl @ 2000nM
PLK2 = PLK2 (Homo sapiens, UniProt Q9NYY3); experiment: biochemical; details: read-out: %Ctrl @ 2000nM
RET = RET (Homo sapiens, UniProt P07949); experiment: biochemical; details: read-out: %Ctrl @ 2000nM
SRPK2 = SRPK2 (Homo sapiens, UniProt P78362); experiment: biochemical; details: read-out: %Ctrl @ 2000nM
STK33 = STK33 (Homo sapiens, UniProt Q9BYT3); experiment: biochemical; details: read-out: %Ctrl @ 2000nM
STK39 = STK39 (Homo sapiens, UniProt Q9UEW8); experiment: biochemical; details: read-out: %Ctrl @ 2000nM
SYK = SYK (Homo sapiens, UniProt P43405); experiment: biochemical; details: read-out: %Ctrl @ 2000nM
TLK1 = TLK1 (Homo sapiens, UniProt Q9UKI8); experiment: biochemical; details: read-out: %Ctrl @ 2000nM
TLK2 = TLK2 (Homo sapiens, UniProt Q86UE8); experiment: biochemical; details: read-out: %Ctrl @ 2000nM
TNNI3K = TNNI3K (Homo sapiens, UniProt Q59H18); experiment: biochemical; details: read-out: %Ctrl @ 2000nM
Sequence of TNNI3K (Q59H18 whole entry): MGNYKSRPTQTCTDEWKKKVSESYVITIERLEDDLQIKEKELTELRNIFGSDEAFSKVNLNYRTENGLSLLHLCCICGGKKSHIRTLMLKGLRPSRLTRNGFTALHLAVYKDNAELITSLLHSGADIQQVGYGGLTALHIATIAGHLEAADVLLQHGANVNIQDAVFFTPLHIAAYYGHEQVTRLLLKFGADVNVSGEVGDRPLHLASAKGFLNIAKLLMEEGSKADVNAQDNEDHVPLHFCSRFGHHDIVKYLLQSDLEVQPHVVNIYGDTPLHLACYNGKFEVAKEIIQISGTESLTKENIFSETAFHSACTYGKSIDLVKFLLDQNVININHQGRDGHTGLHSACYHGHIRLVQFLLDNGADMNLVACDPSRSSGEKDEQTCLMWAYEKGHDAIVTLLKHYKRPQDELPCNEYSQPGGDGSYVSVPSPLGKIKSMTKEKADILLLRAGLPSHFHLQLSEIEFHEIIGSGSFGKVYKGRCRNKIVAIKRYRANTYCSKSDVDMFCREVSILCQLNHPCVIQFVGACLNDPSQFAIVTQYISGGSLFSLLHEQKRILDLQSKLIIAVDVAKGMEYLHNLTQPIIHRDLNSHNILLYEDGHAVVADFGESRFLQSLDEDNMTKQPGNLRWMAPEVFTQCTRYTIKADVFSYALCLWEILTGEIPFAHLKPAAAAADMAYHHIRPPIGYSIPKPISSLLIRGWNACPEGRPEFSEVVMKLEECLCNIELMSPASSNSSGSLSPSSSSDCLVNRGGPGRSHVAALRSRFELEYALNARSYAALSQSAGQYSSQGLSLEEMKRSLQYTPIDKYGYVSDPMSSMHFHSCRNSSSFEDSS

With CC(C)COC(=O)c1[nH]c2ccc(F)cc2c1-c1cn(CC2CCN(CCNS(=O)(=O)c3ccc(CC(C)C)cc3)CC2)nn1 [AB668, isobutyl 5-fluoro-3-(1-((1-(2-((4-isobutylphenyl)sulfonamido)ethyl)piperidin-4-yl)methyl)-1H-1,2,3-triazol-4-yl)-1H-indole-2-carboxylate] the “activated forms of STAT3” value (STAT3 (S727)) was “dose-dependent inhibition”, the cytotoxicity (primary hepatocytes) was “no cytotoxicity” and the remaining activity at 2 µM [1] was 95%. The remaining activity at 2 µM (AMPK-alpha1) was 99%, the remaining activity at 2 µM (AURKB) was 99% and the remaining activity at 2 µM (CAMK4) was 100%. It also gave a remaining activity at 2 µM (CDK2) of 90%, a remaining activity at 2 µM (CHEK2) of 100% and a remaining activity at 2 µM (CLK4) of 97%. For the same compound, the remaining activity at 2 µM (EPHA3) was 86%, the remaining activity at 2 µM (EPHB1) was 100% and the remaining activity at 2 µM (EPHB2) was 98%. For the same compound, the remaining activity at 2 µM (ERK3) was 91%, the remaining activity at 2 µM (FES) was 91% and the remaining activity at 2 µM (FGR) was 72%. The remaining activity at 2 µM (FLT3(D835V)) was 94%, the remaining activity at 2 µM (GRK4) was 98% and the remaining activity at 2 µM (GRK7) was 97%. The remaining activity at 2 µM (IGF1R) was 73%, the remaining activity at 2 µM (LIMK1) was 100% and the remaining activity at 2 µM (LRRK2) was 65%. It also gave a remaining activity at 2 µM (LYN) of 88%, a remaining activity at 2 µM (MAP3K3) of 100% and a remaining activity at 2 µM (MARK1) of 79%. The remaining activity at 2 µM (MKK7) was 82%, the remaining activity at 2 µM (MLK1) was 96% and the remaining activity at 2 µM (MRCKA) was 84%. For the same compound, the remaining activity at 2 µM (MST1) was 97%, the remaining activity at 2 µM (MYLK) was 81% and the remaining activity at 2 µM (OSR1) was 81%. For the same compound, the remaining activity at 2 µM (PAK1) was 99%, the remaining activity at 2 µM (PIK3CA(E542K)) was 99% and the remaining activity at 2 µM (PIK3CA(E545A)) was 100%. It also gave a remaining activity at 2 µM (PIP5K1C) of 87%, a remaining activity at 2 µM (PLK2) of 87% and a remaining activity at 2 µM (RET) of 87%. The remaining activity at 2 µM (SRPK2) was 98%, the remaining activity at 2 µM (STK33) was 67% and the remaining activity at 2 µM (STK39) was 90%. It also gave a remaining activity at 2 µM (SYK) of 100%, a remaining activity at 2 µM (TLK1) of 100% and a remaining activity at 2 µM (TLK2) of 88%. It also gave a remaining activity at 2 µM (TNNI3K) of 96%.
